Reference: article PMC6905430 (Biochemistry, 2019)

Tests used:
wild type DXP synthase = wild type DXP synthase (Escherichia coli, UniProt P77488); test: Anaerobic limited trypsinolysis in the presence of MAP; parameters: species or system E. coli; conditions: preincubation with MAP 65 μM, 45 min, 6 °C; trypsin 4.5 ng/μL; up to 150 min
H299A DXP synthase = H299A DXP synthase (Escherichia coli, UniProt P77488, H299A); assay type: biochemical, E. coli; conditions: H299A vs wild type
H299N DXP synthase = H299N DXP synthase (Escherichia coli, UniProt P77488, H299N); assay type: biochemical, E. coli
H49A DXP synthase = H49A DXP synthase (Escherichia coli, UniProt P77488, H49A); assay type: biochemical, E. coli
H49N DXP synthase = H49N DXP synthase (Escherichia coli, UniProt P77488, H49N); assay type: biochemical, E. coli; conditions: read-out: Km^app,pyruvate; anaerobic; pyruvate varied, D-GAP 500 μM; n = 3
[1] = read-out: Km^app,pyruvate, anaerobic, pyruvate varied, D-GAP 500 μM, n = 3

| Compound | effect of MAP on trypsinolysis profile (wild type DXP synthase) | decrease in kcat/Km^pyruvate relative to wild type DXP synthase (H299A DXP synthase) [fold] | decrease in kcat/Km^pyruvate relative to wild type DXP synthase (H299N DXP synthase; H299N vs wild type) [fold] | Km (H299N DXP synthase; [1]) [µM] | decrease in kcat/Km^pyruvate compared to wild type DXP synthase (H49A DXP synthase; H49A vs wild type) [fold] | Km (H49A DXP synthase; [1]) [µM] | Km (H49N DXP synthase) [µM] |
| --- | --- | --- | --- | --- | --- | --- | --- |
| COP(=O)(O)C(C)=O [MAP, methylacetylphosphonate] | K313 is protected from typsinolysis | – | – | – | – | – | – |
| CC(=O)C(=O)O [pyruvate] | – | 846 | 185 | 1080 | 76 | 1070 | 1610 |
